These results are taken from ChEMBL document CHEMBL1201862, “PubChem BioAssay data set” (2004).

Experiment [1] is described as follows: reduced cellular PGC1a acetyl-lysine signal – cell-based, cherry-picked samples, dose response (AID 720514).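 Also: potency may reflect raised or lowered acetylation signal.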 The format is functional.
The nature of experiment [2]: OVCAR-3 cell viability loss – plate reader, dry powder samples, PAX8 inhibitor project, dose response (AID 743044). The format is functional, cell-based.
Experiment [3] in a line: OVCAR8 cell viability loss – plate reader, dry powder samples, PAX8 project, dose response (AID 743197). The settings on record: OVCAR-8. The format is functional, cell-based.
A short description of experiment [4]: toxicity toward immortalized ovarian surface epithelium – cell-based, plate reader, dry powder samples, cytotoxicity control for PAX8 inhibitor project, dose response (AID 743045). In kind it is functional.
Experiment [5] is described as follows: A2780 cell killing – plate reader, dry powder samples, cytotoxicity control, dose response (AID 743046). The format is functional, cell-based.
The target in another experiment is Paired box protein Pax-8 (Homo sapiens, UniProt Q06710). As to the kind of experiment: PAX8 transcriptional activity inhibition in RMG-I – RMG-I cells, luciferase, cherry-pick, dose response (AID 687027).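 Also: luciferase reporter driven by Pax8 target thyroperoxidase promoter measured by SteadyGlo luminescence.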 The format is functional, cell-based.
Sequence of Paired box protein Pax-8 (Q06710 whole entry): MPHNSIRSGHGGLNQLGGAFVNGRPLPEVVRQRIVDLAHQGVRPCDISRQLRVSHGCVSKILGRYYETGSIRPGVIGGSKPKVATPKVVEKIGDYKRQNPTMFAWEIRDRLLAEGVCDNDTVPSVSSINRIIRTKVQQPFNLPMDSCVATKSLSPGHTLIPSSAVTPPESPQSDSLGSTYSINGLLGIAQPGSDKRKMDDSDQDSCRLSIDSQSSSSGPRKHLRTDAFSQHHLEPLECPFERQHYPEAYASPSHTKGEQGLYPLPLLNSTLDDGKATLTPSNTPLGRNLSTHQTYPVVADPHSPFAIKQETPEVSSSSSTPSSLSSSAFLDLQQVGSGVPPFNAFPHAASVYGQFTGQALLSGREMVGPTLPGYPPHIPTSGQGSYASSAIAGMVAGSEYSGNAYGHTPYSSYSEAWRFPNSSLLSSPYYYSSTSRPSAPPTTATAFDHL
The next experiment addresses Lethal factor (Bacillus anthracis, UniProt P15917). Nature of the experiment: High-throughput multiplex microsphere dose response for inhibitors of toxin protease, specifically Lethal Factor protease, compounds from Cherry Pick 02. The format is functional. The settings on record: read-out: EC50_MICROM.
The target in experiment [6] is Botulinum neurotoxin type F (Clostridium botulinum, UniProt P30996). Nature of the experiment: High-throughput multiplex microsphere dose response for inhibitors of toxin protease, specifically Botulinum neurotoxin light chain F protease, compounds from Cherry Pick 02. The settings on record: read-out: EC50_MICROM. The format is functional.
Sequence of Botulinum neurotoxin type F (P30996 1-436 limits assumed): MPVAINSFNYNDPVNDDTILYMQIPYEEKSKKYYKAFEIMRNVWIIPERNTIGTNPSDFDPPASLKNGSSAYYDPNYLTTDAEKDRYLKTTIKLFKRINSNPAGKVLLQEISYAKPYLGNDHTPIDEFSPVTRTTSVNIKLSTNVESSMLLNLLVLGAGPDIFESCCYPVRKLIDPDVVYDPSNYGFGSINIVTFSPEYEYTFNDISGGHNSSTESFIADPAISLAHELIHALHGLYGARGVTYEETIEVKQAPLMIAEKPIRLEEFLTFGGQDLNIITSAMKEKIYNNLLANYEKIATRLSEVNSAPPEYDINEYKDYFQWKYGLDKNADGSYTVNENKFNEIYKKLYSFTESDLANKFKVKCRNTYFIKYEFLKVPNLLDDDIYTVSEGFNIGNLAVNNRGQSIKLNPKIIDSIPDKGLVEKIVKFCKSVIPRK
Experiment [7] can be described thus: viability loss in HEK293T cells – cell-based, CellTiter-Glo luminescence, dry powder, set 6, cytotoxicity control, dose response (AID 651949). In kind it is functional. The settings on record: HEK293.
The nature of experiment [8]: cells.
The target in experiment [9] is T1, Oxysterols receptor LXR-beta (Homo sapiens, UniProt P55055).
T1 sequence (P55055 whole entry): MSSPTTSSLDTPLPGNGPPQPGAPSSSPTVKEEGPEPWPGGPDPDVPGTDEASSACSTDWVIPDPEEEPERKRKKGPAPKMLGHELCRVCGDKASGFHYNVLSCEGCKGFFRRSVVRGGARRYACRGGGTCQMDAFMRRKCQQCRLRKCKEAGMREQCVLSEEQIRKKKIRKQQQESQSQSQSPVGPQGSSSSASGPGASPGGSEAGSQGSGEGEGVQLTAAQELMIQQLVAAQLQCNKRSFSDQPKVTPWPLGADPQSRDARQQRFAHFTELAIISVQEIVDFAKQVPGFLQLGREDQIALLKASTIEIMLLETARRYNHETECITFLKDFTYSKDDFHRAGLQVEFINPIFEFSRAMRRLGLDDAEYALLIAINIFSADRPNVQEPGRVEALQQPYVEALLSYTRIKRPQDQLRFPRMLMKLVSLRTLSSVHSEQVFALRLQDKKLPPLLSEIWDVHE
In kind it is functional, cell-based.

The nature of experiment [10]: Luminescence-based cell-based high throughput dose response assay to identify activators of the DAF-12 from the parasite S. stercoralis (ssDAF-12). In kind it is functional.
A further experiment addresses Mu-type opioid receptor (Homo sapiens, UniProt P35372). In kind it is functional, cell-based.
The target in experiment [11] is 5-hydroxytryptamine receptor 2A (Mus musculus, UniProt P35363). In kind it is functional, cell-based.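 Also: CHO-K1 cells with tagged receptor and beta-arrestin; agonist potency measured as compound-induced activation of the receptor.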
Sequence of 5-hydroxytryptamine receptor 2A (P35363 whole entry): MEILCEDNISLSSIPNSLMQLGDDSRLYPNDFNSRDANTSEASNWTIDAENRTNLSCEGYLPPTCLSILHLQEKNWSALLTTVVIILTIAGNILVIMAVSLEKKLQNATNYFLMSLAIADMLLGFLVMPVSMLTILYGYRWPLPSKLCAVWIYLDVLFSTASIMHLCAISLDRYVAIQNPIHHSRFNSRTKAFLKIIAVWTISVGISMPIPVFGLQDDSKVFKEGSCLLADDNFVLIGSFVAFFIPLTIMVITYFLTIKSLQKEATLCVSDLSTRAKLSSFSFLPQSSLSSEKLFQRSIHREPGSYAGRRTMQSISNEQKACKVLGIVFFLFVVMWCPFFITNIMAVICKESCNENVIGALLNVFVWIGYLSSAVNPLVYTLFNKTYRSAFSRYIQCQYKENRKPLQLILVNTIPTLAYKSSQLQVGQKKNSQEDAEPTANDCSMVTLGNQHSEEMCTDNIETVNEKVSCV
The nature of experiment [12]: inhibitors of non-replicating M. tuberculosis, dose response, luciferase, dry powder (AID 651620). The format is functional. The settings on record: Mycobacterium tuberculosis.
A short description of experiment [13]: inhibitors of non-replicating M. tuberculosis, dose response, luciferase, dry powder (AID 651619). The format is functional. Particulars: Mycobacterium tuberculosis.
Experiment [14] addresses T1, Oxysterols receptor LXR-beta. The format is functional, cell-based. This is another data set of the same source.
The next experiment deals with Galanin receptor type 3 (Homo sapiens, UniProt O60755). Nature of the experiment: Fluorescence-based cell-based primary high throughput dose response assay to identify antagonists of the Galanin Receptor 3 (GalR3). In kind it is functional.
Sequence of Galanin receptor type 3 (O60755 whole entry): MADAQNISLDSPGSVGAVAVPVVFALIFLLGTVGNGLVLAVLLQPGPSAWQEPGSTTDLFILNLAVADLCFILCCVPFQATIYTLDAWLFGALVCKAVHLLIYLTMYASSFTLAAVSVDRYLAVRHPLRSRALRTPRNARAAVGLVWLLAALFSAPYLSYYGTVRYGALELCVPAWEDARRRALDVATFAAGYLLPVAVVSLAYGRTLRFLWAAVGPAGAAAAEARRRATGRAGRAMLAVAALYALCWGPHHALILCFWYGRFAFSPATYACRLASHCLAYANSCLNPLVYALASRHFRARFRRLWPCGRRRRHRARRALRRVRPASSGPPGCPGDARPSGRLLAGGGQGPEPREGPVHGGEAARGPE
The nature of experiment [15]: cells. The format is functional, cell-based. The settings on record: HEK-CNG.

Calls of active or inactive are those of the source. Some results are limits rather than exact numbers.

Sequence of Lethal factor (P15917 whole entry): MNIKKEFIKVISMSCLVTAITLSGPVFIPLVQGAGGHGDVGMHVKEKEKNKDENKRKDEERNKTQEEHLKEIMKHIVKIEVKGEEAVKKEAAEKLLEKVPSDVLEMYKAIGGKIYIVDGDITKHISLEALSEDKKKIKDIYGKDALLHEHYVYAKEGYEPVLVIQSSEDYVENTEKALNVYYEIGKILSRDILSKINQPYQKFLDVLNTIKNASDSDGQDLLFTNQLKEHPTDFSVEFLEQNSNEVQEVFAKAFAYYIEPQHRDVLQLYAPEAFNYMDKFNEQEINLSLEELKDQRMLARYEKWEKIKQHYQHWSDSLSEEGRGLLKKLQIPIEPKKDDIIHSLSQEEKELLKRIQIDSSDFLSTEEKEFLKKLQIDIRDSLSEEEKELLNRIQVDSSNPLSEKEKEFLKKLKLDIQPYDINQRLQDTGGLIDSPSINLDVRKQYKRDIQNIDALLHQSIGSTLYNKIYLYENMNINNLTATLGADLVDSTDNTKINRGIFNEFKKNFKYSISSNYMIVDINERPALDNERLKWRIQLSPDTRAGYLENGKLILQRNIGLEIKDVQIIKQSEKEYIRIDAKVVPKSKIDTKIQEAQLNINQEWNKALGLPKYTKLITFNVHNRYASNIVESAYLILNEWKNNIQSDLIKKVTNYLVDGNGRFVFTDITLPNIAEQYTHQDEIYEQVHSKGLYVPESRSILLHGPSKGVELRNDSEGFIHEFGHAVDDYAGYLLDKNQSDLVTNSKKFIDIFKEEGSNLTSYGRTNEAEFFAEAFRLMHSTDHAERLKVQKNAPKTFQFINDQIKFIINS
Sequence of Mu-type opioid receptor (P35372 whole entry): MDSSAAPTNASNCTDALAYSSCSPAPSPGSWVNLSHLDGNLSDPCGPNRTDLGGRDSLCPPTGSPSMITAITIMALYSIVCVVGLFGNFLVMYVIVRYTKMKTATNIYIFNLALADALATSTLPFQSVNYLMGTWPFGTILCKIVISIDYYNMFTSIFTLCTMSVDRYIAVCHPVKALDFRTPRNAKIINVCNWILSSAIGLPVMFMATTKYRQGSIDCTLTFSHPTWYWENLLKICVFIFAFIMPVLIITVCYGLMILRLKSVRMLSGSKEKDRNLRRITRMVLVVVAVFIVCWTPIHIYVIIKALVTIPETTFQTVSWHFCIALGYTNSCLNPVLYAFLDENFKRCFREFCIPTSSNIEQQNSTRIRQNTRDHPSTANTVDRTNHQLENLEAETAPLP

For `Cc1cc(-c2ccc(Cl)cc2)n2ncnc2n1`, in experiment [1], the AC50 was 29.8 µM (active).

Take `C[C@H]1CCCCO[C@H](CN(C)C(=O)Nc2ccc(C(F)(F)F)cc2)[C@@H](C)CN([C@@H](C)CO)C(=O)c2cc(NC(=O)Nc3ccc(F)cc3)ccc2O1`: the AC50 was 11.2 µM (active) in experiment [2]; 23.7 µM (active) in experiment [3]; 50.8 µM (active) in experiment [4]; 52.4 µM (active) in experiment [5]; 3.62 µM (active) on Paired box protein Pax-8.

Regarding `O=C(COC(=O)c1cncc(Br)c1)NC12CC3CC(CC(C3)C1)C2`, the EC50 was 11.5 µM (active) on Lethal factor and > 20 µM (inactive) in experiment [6].

In the case of `c1ccc(CSc2nnc(C3CCCC3)o2)cc1`, the AC50 in [7] is > 52 µM (inactive).

`COc1ccc(Nc2nc(-c3ccccc3)cs2)cc1`: the EC50 (in “cells [8]”; in experiment [9]) was > 67.5 µM (inactive) throughout. The IC50 in experiment [10] is > 67.5 µM (inactive).

On to `FC(F)(F)c1cccc(CN2CCN(c3ncccn3)CC2)c1`, for which the EC50 on Mu-type opioid receptor is 92.4 µM (inactive); in experiment [11] it was 4.16 µM (active).

In the case of `c1ccc(Cn2cc(CSc3nnc(-c4ccccc4)o3)nn2)cc1`, the IC90 in [12] and in experiment [13] was 2 µM (active) throughout.

In the case of `CCOC(=O)CSc1nc(-c2ccncc2)ccc1C#N`, the EC50 in experiment [14] is > 67.5 µM (inactive).

As to `Cc1nn(C)c(Nc2ccc(Br)cc2)c1Br`, the IC50 at Galanin receptor type 3 was 0.155 µM (active). Besides, in the experiment “cells [15]”, the EC50 is > 29.9 µM (inactive).
